From patent publication US8703951B2, “Synthesis of 4H-benzo[D]pyrrolo[1,2-A]thiazoles and indolizino[6,7-b]indole derivatives and their use as antitumor therapeutic agents” (Academia Sinica, priority 2011, dated 2014)
Where two headings read alike, the source gives them in different places. Blank lines part the entries; values can stand above or below the molecule they belong to.

Legend:
[1] = test system: human large cell lung carcinoma H460 xenograft; conditions: combination with arsenic trioxide (ATO); background; cited from earlier work
[2] = test system: cisplatin-resistant NTUB 1/P human bladder carcinoma xenografts; conditions: combination with arsenic trioxide (ATO); background; cited from earlier work
CCRF-CEM/Taxol = assay: In vitro cytotoxicity, XTT assay, CCRF-CEM/Taxol; type: cell-based, human; conditions: Table 5; for IC50: Taxol-resistant subline, XTT, 72 h, read-out: Cell Growth inhibition (IC50 μM) CCRF-CEM/Taxol; for fold of cross-resistant vs IC50 of the parent cell line, CCRF-CEM/Taxol: number in brackets
From the text: (§1) Human colon carcinoma HCT-116 cells and human prostate adenocarcinoma PC-3 cells were obtained from American Type Culture Collection (ATCC, Rockville, Md.). Human mammary carcinoma (MX-1) tumor cells were obtained from MSKCC cell bank. The CCRF-CEM human lymphoblastic leukemia cells and their vinblastine resistant subline (CCRF-CEM/VBL, 680-fold resistance in vitro) were obtained from Dr. William Beck of the University of Illinois, Chicago, and CCRF-CEM/Taxol (330-fold resistance in vitro). Resistant cells CCRF-CEM/taxol were produced by exposing the parent cells to increasing sublethal concentration (IC50-IC90) of paclitaxel for six months.
(§2) In preparation for in vitro cytotoxicity assays, cells were cultured at an initial density 2−5×10^4 cells per milliliter. They were maintained in a 5% CO2-humidified atmosphere at 37° C. in RPMI medium 1640 (GIBCO/BRL) containing penicillin (100 units/mL), streptomycin (100 μg/mL, GIBCO/BRL), and 5% heat-inactivated FBS. For cells grown in suspension (such as CCRF-CEM and its sublines), cytotoxicity was measured, by using XTT microculture method^23 in 96-well microtiter plates.
(§3) The cytotoxic effects of the newly synthesized compounds were determined in T-cell acute lymphocytic leukemia (CCRF-CEM) and their resistant subcell lines (CCRF-CEM/Taxol and CCRF-CEM/VBL) by the XTT assay^24 and human solid tumor cells (i.e. breast carcinoma MX-1 and colon carcinoma HCT-116) by the SRB assay^25 in a 72 h incubation using a microplate spectrophotometer as described previously.^25 After the addition of phenazine methosulfate-XTT solution, incubated at 37° C. for 6 h and absorbance at 450 and 630 nm was detected on a microplate reader (EL 340). The cytotoxicity of the newly synthesized compounds against non-small cell lung carcinoma H1299, prostate cancer PC3, oral cancer OECM-1 and glioma U87 were determined by the Alamar blue assay^26 in a 72 h incubation using a microplate spectrophotometer as described previously. After the addition of alamar blue solution, it was incubated at 37° C. for 6 h. Absorbance at 570 and 600 nm was detected on a microplate reader. IC50 values were determined from dose-effect relationship at six or seven concentrations of each drug using the CompuSyn software by Chou and Martin^27 based on the median-effect principle and plot.^28,29 Ranges given for Cisplatin were mean±SE (n=4).

glioma U87 = assay: In vitro cytotoxicity, Alamar blue assay, U87; type: cell-based, human
Description: (§4) Prostate cancer PC3, non-small cell lung carcinoma cells H1299, and human glioma cells U87 were purchased from the American Type Culture Collection (Rockville, Md.). OECM-1 (human gingival squamous cell carcinoma cells) was obtained from Dr C.-L. Meng (National Defense Medical College, Taiwan).^22
as §2, §3

breast carcinoma MX-1 = assay: In vitro cytotoxicity, SRB assay, MX-1; type: cell-based, human; conditions: Table 6, 72 h
From the text: as §1, §2, §3

colon carcinoma HCT-116 = assay: In vitro cytotoxicity, SRB assay, HCT-116; type: cell-based, human; conditions: Table 6, 72 h
From the text: as §1, §2, §3

oral cancer OECM-1 = assay: In vitro cytotoxicity, Alamar blue assay, OECM-1; type: cell-based, human
Description: as §4, §2, §3

prostate cancer PC3 = assay: In vitro cytotoxicity, Alamar blue assay, PC3; type: cell-based, human
Description: as §4, §2, §3

[3] = test system: non-small cell lung carcinoma H1299; assay: In vitro cytotoxicity, Alamar blue assay, H1299; type: cell-based, human
Description: as §4, §2, §3

CCRF-CEM/VBL = assay: In vitro cytotoxicity, XTT assay, CCRF-CEM/VBL; type: cell-based, human; conditions: Table 5; for fold of cross-resistant vs IC50 of the parent cell line, CCRF-CEM/VBL: number in brackets; for IC50: vinblastine-resistant subline, XTT, 72 h, read-out: Cell Growth inhibition (IC50 μM) CCRF-CEM/VBL
From the text: as §1, §2, §3

[4] = test system: MX-1 human mammary xenograft; assay: Therapeutic efficacy in nude mice bearing MX-1 xenograft; type: in vivo
Description: Athymic nude mice bearing the nu/nu gene were obtained from NCI, Frederick, Md. and used for all human tumor xenografts. Male nude mice, 6 weeks or older, weighing 20-24 g or more were used. Compounds were administered via the tail vein for i.v. injection or infusion as described previously.^26 A typical formulation for chemotherapeutic studies for each drug was dissolved in DSMO to make a 25 mg/ml fresh solution, 0.4 ml of this solution was mixed with 0.3 ml of Tween 80, plus 1.3 ml to make 2 ml of 5 mg/ml solution. Bolus injection volume was 0.1-0.2 ml per mouse. Tumor volume was assessed by measuring length×width×height (or width) by using a caliper. For tumor-bearing nude mice during the course of the experiment, the body weight refers to total weight minus the weight of the tumor. All animal studies were conducted in accordance with the guidelines for the National Institute of Health Guide for the Care and Use of Animals and the protocol approved by the Institutional Animal Care and Use Committee.

[5] = test system: human lymphoblastic leukemia (CCRF-CEM); assay: In vitro cytotoxicity, XTT assay, CCRF-CEM; type: cell-based
From the text: as §1, §2, §3

linearized pBR322DNA = assay: DNA cross-linking, alkaline agarose gel shift assay; type: biochemical; conditions: 1, 10, and 20 μM; FIG. 8
Description: Formation of DNA cross-linking was analyzed by alkaline agarose gel electrophoresis assay. […] The reaction mixture was incubated at 37° C. for 2 h. At the end of reaction, the plasmid DNA was linearized by digestion with BamHI and followed by precipitation with ethanol. The DNA pellets were dissolved and denatured in alkaline buffer (0.5 N NaOH-10 mM EDTA). An aliquot of 20 μL of DNA solution (1000 ng) was mixed with 4 μL of 6× alkaline loading dye and then electrophoretically resolved on a 0.8% alkaline agarose gel with NaOH-EDTA buffer at 4° C. The electrophoresis was carried out at 18 V for 22 h. After staining the gels with an ethidium bromide solution, the DNA was then visualized under UV light.

[6] = Table 5, 72 h incubation, read-out: Cell Growth inhibition (IC50 μM) CCRF-CEM

Structure (SMILES): CNC(=O)OCc1c(COC(=O)NC)c(-c2ccc(OC)cc2)n2c1Cc1ccccc1-2 [BO-1012]
tumor suppression [1]: more than 82% | tumor suppression [2]: > 92%

Structure (SMILES): CC(C)NC(=O)OCc1c(-c2ccc(F)cc2)c2sc3ccccc3n2c1COC(=O)NC(C)C [Compound 20b, (1-(4-Fluorophenyl)benzo[d]pyrrolo[2,1-b]thiazole-2,3-diyl)bis(methylene)bis(iso-propylcarbamate)]
IC50 (CCRF-CEM/Taxol): 0.16 ± 0.007 µM | fold of cross-resistant vs IC50 of the parent cell line, CCRF-CEM/Taxol (CCRF-CEM/Taxol): 3.20 × | IC50 (glioma U87; Table 6, 72 h): 53.5 ± 9.97 µM | IC50 (breast carcinoma MX-1): 0.62 ± 0.014 µM | IC50 (colon carcinoma HCT-116): 0.35 ± 0.01 µM | IC50 (oral cancer OECM-1; Table 6, 72 h): 11.9 ± 2.9 µM | IC50 (prostate cancer PC3; Table 6, 72 h): 24.2 ± 4.17 µM | IC50 ([3]; Table 6, 72 h): 33 ± 3.2 µM | fold of cross-resistant vs IC50 of the parent cell line, CCRF-CEM/VBL (CCRF-CEM/VBL): 3.80 × | IC50 (CCRF-CEM/VBL): 0.19 ± 0.003 µM | complete tumor remission (CR), mice ([4]; 20 mg/kg, Q2Dx3 and then 25 mg/kg, Q2D×4, iv. inj., on D26 and 28): two out of three | IC50 [5, 6]: 0.05 ± 0.001 µM

Structure (SMILES): CC(C)NC(=O)OCc1c(COC(=O)NC(C)C)c2sc3ccccc3n2c1-c1ccc(Cl)cc1 [Compound 20c, (1-(4-Chlorophenyl)benzo[d]pyrrolo[2,1-b]thiazole-2,3-diyl)bis(methylene)bis(iso-propylcarbamate)]
IC50 (CCRF-CEM/Taxol): 0.39 ± 0.004 µM | fold of cross-resistant vs IC50 of the parent cell line, CCRF-CEM/Taxol (CCRF-CEM/Taxol): 4.87 × | DNA interstrand cross-linking (linearized pBR322DNA): able to bind covalently (interstrand cross-linking) with DNA | IC50 (glioma U87; Table 6, 72 h): 29 ± 4.49 µM | IC50 (breast carcinoma MX-1): 1.19 ± 0.004 µM | IC50 (colon carcinoma HCT-116): 1.7 ± 0.006 µM | IC50 (oral cancer OECM-1; Table 6, 72 h): 7.54 ± 0.95 µM | IC50 (prostate cancer PC3; Table 6, 72 h): 13.7 ± 1.28 µM | IC50 ([3]; Table 6, 72 h): 8.75 ± 0.88 µM | fold of cross-resistant vs IC50 of the parent cell line, CCRF-CEM/VBL (CCRF-CEM/VBL): 5.25 × | IC50 (CCRF-CEM/VBL): 0.42 ± 0.001 µM | complete tumor remission, mice ([4]; 20 mg/kg, Q2Dx3 and then 25 mg/kg, Q2Dx5, on D24, 26, and 26, FIG. 5A): all three | IC50 [5, 6]: 0.08 ± 0.0003 µM

melting point: 216 to 217 °C
Structure (SMILES): CCn1c2c(c3ccccc31)Cc1c(CO)c(CO)c(C)n1C2 [Compound 33b, [6-Ethyl-3-methyl-6,11-dihydro-5H-indolizino[6,7-b]indole-1,2-diyl]dimethanol]
IC50 (glioma U87; Homo sapiens, Table 7, 72 h): 6.26 ± 1.43 µM | IC50 (oral cancer OECM-1; Homo sapiens, OECM1, Table 7, 72 h): 1.17 ± 0.89 µM | IC50 (prostate cancer PC3; Homo sapiens, Table 7, 72 h): 2.66 ± 0.47 µM | IC50 ([3]; Homo sapiens, NCI-H1299, Table 7, 72 h): 2.97 ± 0.55 µM | complete tumor remission (CR) ([4]; FIG. 6, i.v. inj., n=4): CR was achieved | IC50 ([5]; Homo sapiens, CCRF-CEM, Table 7, 72 h, read-out: IC50 (μM) CCRF/CEM): 0.1 ± 0.002 µM
